Reference: patent US20260200982A1, “HER RECEPTOR DERIVED PEPTIDES AND METHODS OF USE THEREOF” (Ramot at Tel-Aviv University Ltd., priority 2022, published 2026)
The star is where a group is joined. Myristoyl = CCCCCCCCCCCCCC(=O)*

How the values were obtained:
Panc-1 cells = experiment: Colony formation assay, Panc-1; assay type: cell-based, human; conditions: 8 μM, 72 hours, FIG. 8
Protocol: (§1) Colony formation assay—Cells were plated onto 12-well plate (6×10^4 cells/well) and treated with either PBS or myr-NLS at the IC50 concentration for 3 days. Cells were collected and replated in 10-cm plates (at 3 dilutions of 1:10, 1:20 and 1:40). After 7-14 days when visible and yet separated colonies were formed, the cells were fixed with 0.1% acetic acid in PBS, and stained with 0.4% crystal violet in 0.1% acetic acid. Total colonies area was calculated using the ImageJ program.
(§2) In order to test the effect of myr-NLS on cell tumorigenicity, a colony formation assay was performed. To this end, Panc-1 and MIA PaCa-2 cells were treated or untreated for 72 hours with IC50 dose of myr-NLS (SEQ ID NO: 5, 8 μM and 4.5 μM respectively). Cells were then seeded at the same dilutions in new plates until colonies were formed.

Rat-1 fibroblast cells = experiment: Methylene blue viability assay, Rat-1; assay type: cell-based; conditions: FIG. 4C
From the text: (§3) Cell lines—Human breast cancer cell lines SKBR3 [Peles E et al. EMBO J. (1993) 12(3):961-71] and MCF7 [Faigenbloom L et al., Mol Syst Biol. (2015) 11(12):845] and human glioblastoma U87 [Goldberg L et al. Cancer Res. (2006) 66(24):11709-17] cell line, as well as Rat-1 fibroblast cells and H-Ras-transformed Rat-1 cells (EJ cells) [Marom M et al. J Biol Chem. (1995) 270(38):22263-70] and human Panc-1 and MIA PaCa-2 pancreatic cell lines (Rak R et al. Oncoscience. 2014 1(1):39-48; Weisz B et al. Oncogene (1999) 18, 2579±2588) were all grown in Dulbecco's modified Eagle's medium (DMEM; Biological Industries, Beithaemek, Israel). Human colorectal cancer cell lines DLD-1 (ATTC Cat No. CCL-221), HCT-116 (ATTC Cat No. CCL-247) and LNCaP prostate cancer cells were grown in Roswell Park Memorial Institute 1640 (RPMI 1640) medium and McCoy's 5A media, respectively (Sigma-Aldrich). All media were supplemented with antibiotics and 10% heat-inactivated fetal bovine serum (FBS; Gibco). Human breast cell line MCF10A [Bott A et al. Oncotarget. […]
(§4) Methylene blue viability assay—Cells were plated in 96-wells plates at cell densities of 1.5×10^3 (EJ, DLD-1), 3×10^3 (Rat-1, HCT-116, U87), 5×10^3 (SKBR3, MCF7) and 6×10^3 (MCF10A) cells/well. […] IC-50 values were calculated using a non-linear regression model (logarithmic inhibitor vs. normalized response-variable slope) with the GraphPad Prism 6 software.

[1] = system: LNCaP prostate cancer cells; experiment: Methylene blue viability assay, LNCaP; assay type: cell-based, human; conditions: 72 hours, FIGS. 4B and 4C, read-out: IC50 (cell viability)
From the text: as §3, §4

DLD-1 cells = experiment: Colony formation assay, DLD-1; assay type: cell-based, human; conditions: 20 μM, 72 hours, FIG. 12
Protocol: as §1
In addition, a colony formation assay was conducted to further examine the anti-tumor effect of the myr-NLS (SEQ ID NO: 5), myr-NLS2 (SEQ ID NO: 15) and myr-NLS4 (SEQ ID NO: 17) peptides. To this end, DLD-1 cells were treated or untreated for 72 hours with 20 μM of the myr-peptides. Cells were then seeded at the same dilutions in new plates until colonies were formed.

MIA PaCa-2 cells = experiment: Colony formation assay, MIA PaCa-2; assay type: cell-based, human; conditions: 4.5 μM, 72 hours, FIG. 8
Protocol: as §1, §2

EGFR (ErbB1) = experiment: Western blot analysis of dissected Panc-1 tumors, EGFR; assay type: in vivo, human; conditions: Panc-1 tumor lysates
Protocol: (§5) Pancreatic Tumor Growth in Nude Mice—The study was conducted according to the NIH Guidelines for Use and Care of Laboratory Animals and following the approval by Animal Care Committee of the Tel Aviv University. Nude CD1-Nu mice (25-30 g) housed in barrier facilities on a 12-h light/dark cycle one week prior to the injection of tumor cells (day zero). On day zero, 2×10^6 Panc 1 cells in 0.1 ml of PBS were implanted subcutaneously just above the right femoral joint. Tumor size was measured every 3-4 days. When the tumors were apparently seen and the calculated tumor size was 40 mm^3, the animals were divided randomly into two groups of mice (control vehicle treated and myr-NLS (SEQ ID NO: 5) treated; 8 mice per group). Treatment with the myr-NLS (SEQ ID NO: 5) was performed by intraperitoneal injection of 25 μg in 100 μl PBS (or 100 μl PBS for control mice) every day. Tumors size was measured 3 times a week. At the end of the experiment, the mice were sacrificed, and the tumors were dissected and used for further analysis.
Western blot analysis—Half of each tumor was homogenized in lysis buffer, using a Potter-Elvehjem manual homogenizer, cleared and kept at −70° C. The lysates (30 μg) were resolved by SDS-polyacrylamide gel electrophoresis (SDS-PAGE) and transferred to nitrocellulose membranes. The membranes were blocked with TBST buffer containing 6% milk and reacted with the indicated primary antibodies followed by second antibodies. Immunoreactive bands were detected with the enhanced chemiluminescence reagent (Luminata Crescendo Western HRP). Densitometric quantification analysis of the resulted images was done using ImageJ program.
Following, the present inventors examined whether the reduction of the tumor growth rate correlates with alterations expression and activation of the relevant proteins. To this end, lysates were prepared form the dissected tumors for protein levels evaluations. The tumor lysates were processed for western blot analysis (30 μg protein, 10% SDS polyacrylamide gel electrophoresis) and protein levels were determined using the indicated antibodies.

Akt = experiment: Western blot analysis of dissected Panc-1 tumors, Akt; assay type: in vivo, human; conditions: Panc-1 tumor lysates; FIGS. 10A-C
Protocol: as §5
(§6) Western blot analysis—Half of each tumor was homogenized in lysis buffer, using a Potter-Elvehjem manual homogenizer, cleared and kept at −70° C. […] Immunoreactive bands were detected with the enhanced chemiluminescence reagent (Luminata Crescendo Western HRP). Densitometric quantification analysis of the resulted images was done using ImageJ program. […]

ErbB2 = experiment: Western blot analysis of dissected Panc-1 tumors, ErbB2; assay type: in vivo, human; conditions: Panc-1 tumor lysates; FIGS. 10A-C
Protocol: as §5, §6

IC50 [1]: 7.6 µM
Substance: Myr-RRRHIVRKRTLRRLL-OH (Myristoyl-RRRHIVRKRTLRRLL-OH; SMILES CCCCCCCCCCCCCC(=O)N[C@@H](CCCNC(=N)N)C(=O)N[C@@H](CCCNC(=N)N)C(=O)N[C@@H](CCCNC(=N)N)C(=O)N[C@@H](Cc1c[nH]cn1)C(=O)N[C@H](C(=O)N[C@H](C(=O)N[C@@H](CCCNC(=N)N)C(=O)N[C@@H](CCCCN)C(=O)N[C@@H](CCCNC(=N)N)C(=O)N[C@H](C(=O)N[C@@H](CC(C)C)C(=O)N[C@@H](CCCNC(=N)N)C(=O)N[C@@H](CCCNC(=N)N)C(=O)N[C@@H](CC(C)C)C(=O)N[C@@H](CC(C)C)C(=O)O)[C@@H](C)O)C(C)C)[C@@H](C)CC) [myr-NLS]
colony formation (total colonies area) (Panc-1 cells): fewer and smaller colonies
viability of non-transformed Rat-1 cells (Rat-1 fibroblast cells): had no effect
colony formation (total colonies area) (DLD-1 cells): fewer and smaller colonies
colony formation (total colonies area) (MIA PaCa-2 cells): fewer and smaller colonies
ratio between EGFR and its phosphorylation state (activation of the EGFR) (EGFR (ErbB1); FIG. 10C): affected the activation of the EGFR
expression levels of EGFR in tumors (EGFR (ErbB1); FIGS. 10A-C): reduced
levels of phosphorylated EGFR in tumors (EGFR (ErbB1); FIGS. 10A-C): reduced
Akt levels in tumors (Akt): significant reduction
levels of total ErbB2 in tumors (ErbB2): reduced
phosphorylated ErbB2 expression in tumors (ErbB2): reduced
